Reference: patent publication US8936728B2, “Chemicals for oil spill cleanup” (priority 2010, dated 2015)

System: fresh water minnows
Assay: Toxicity tests using fresh water minnows
Format: in vivo
Details: test water containing 25 ppm; control water without the phosphonium bromide
Protocol: Toxicity tests were conducted using fresh water minnows. The fresh water minnows were placed in test water containing 25 ppm dodecylbenzyldimethyl phosphonium bromide and in a control water sample without the phosphonium bromide.

CCCCCCCCCCCC[P+](C)(C)Cc1ccccc1.[Br-] [dodecylbenzyldimethyl phosphonium bromide]
number of fresh water minnows dying over a given time in the test water versus control: about the same as in the control
